# Results as given in the supplement of paper PMC10307832.
# Columns and labels:
# Test in all cases: relative viability (nuclei count vs DMSO), 5 days (fraction); higher = more cells survive
# [1] = compound: CC1=CC=C(C=C1)C(=O)CN2C3=C(CCCC3)SC2=N [Pifithrin_alpha] + C[C@@H](Oc1cc(-c2cnn(C3CCNCC3)c2)cnc1N)c1c(Cl)ccc(F)c1Cl [Crizotinib] (partner 1 µM)
# Method in brief: (§1)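 Lung cancer cell lines in 1536-well plates were dosed by pin tool the day after seeding, either with one drug alone or with a fixed anchor-drug dose plus five library-drug doses (not always all listed) in √10 steps. After 5 days, cells were fixed and their nuclei stained in one step (final 0.05% Triton X-100, 1% formaldehyde, 1 ug/ml Hoechst), then counted on 4× images. Relative viability is the nuclei count in treated wells divided by that in vehicle wells. Values are medians of duplicate plates.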
# Bemcentinib + Vorinostat = compound: Nc1nc(Nc2ccc3c(c2)CC[C@@H](N2CCCC2)CC3)nn1-c1cc2c(nn1)-c1ccccc1CCC2 [Bemcentinib] + O=C(CCCCCCC(=O)Nc1ccccc1)NO [Vorinostat] (partner 1 µM)
# Method in brief: as §1
# Axitinib + Palbociclib = compound: CNC(=O)c1ccccc1Sc1ccc2c(/C=C/c3ccccn3)n[nH]c2c1 [Axitinib] + CC(=O)c1c(C)c2cnc(Nc3ccc(N4CCNCC4)cn3)nc2n(C2CCCC2)c1=O [Palbociclib] (partner 0.5 µM)
# Method in brief: as §1
Cell Line,relative viability ([1]; first compound 1 µM),relative viability ([1]; first compound 3.162 µM),relative viability ([1]; first compound 10 µM),relative viability ([1]; first compound 100 µM),relative viability (Bemcentinib + Vorinostat; first compound 0.04 µM),relative viability (Bemcentinib + Vorinostat; first compound 0.1265 µM),relative viability (Bemcentinib + Vorinostat; first compound 0.4 µM),relative viability (Bemcentinib + Vorinostat; first compound 1.265 µM),relative viability (Bemcentinib + Vorinostat; first compound 4 µM),relative viability (Axitinib + Palbociclib; first compound 0.005 µM),relative viability (Axitinib + Palbociclib; first compound 0.01581 µM),relative viability (Axitinib + Palbociclib; first compound 0.05 µM),relative viability (Axitinib + Palbociclib; first compound 0.1581 µM),relative viability (Axitinib + Palbociclib; first compound 0.5 µM),relative viability ([1]; first compound 31.62 µM)
NCI-H460,1.4,0.827,0.912,0.962,0.696,0.981,1.21,0.838,0.73,0.154,0.211,0.143,0.145,0.319,
NCI-H2170,1.3,1.32,1.24,1.19,0.732,0.855,0.992,0.745,0.897,0.494,0.438,0.385,0.444,0.435,0.96
LC-2-ad,,0.505,0.425,0.473,0.705,0.805,0.73,0.726,0.737,0.473,0.532,0.485,0.503,0.523,
HCC-78,0.319,0.289,0.321,0.321,0.456,0.449,0.394,0.514,0.39,0.504,0.408,0.469,0.5,0.449,
NCI-H322M,0.894,0.907,0.871,0.986,0.863,0.931,0.836,0.952,0.899,0.454,0.442,0.491,0.427,0.514,0.674
NCI-H1651,0.942,0.924,0.934,0.959,0.532,0.557,0.569,0.476,0.613,0.597,0.542,0.471,0.514,0.544,0.835
NCI-H1437,1.05,0.962,0.892,1.02,0.857,0.914,0.97,0.955,0.889,0.353,0.283,0.346,0.307,0.313,0.763
NCI-H1355,0.995,0.734,0.62,0.733,0.596,0.617,0.701,0.65,0.687,0.415,0.443,0.426,0.414,0.409,0.619
NCI-H1755,0.858,0.78,0.771,0.864,0.783,0.808,0.754,0.823,0.923,0.472,0.423,0.462,0.512,0.42,0.634
SK-LU-1,1.01,1.03,0.951,1.02,0.801,0.762,0.883,0.887,0.746,0.433,0.406,0.38,0.368,0.355,0.824
